In paper PMC4300089, “Structure-Guided Design of Selective Epac1 and Epac2 Agonists” (PLoS Biology, 2015):
Where a chain is given by its changes, count along the chain named.

Legend:
Format in all cases: biochemical
Epac2^Δ280 = target: T1, Epac2^Δ280 (Mus musculus, UniProt Q9EQZ6); assay: Epac activation assay (Rap1B•mGDP fluorescence nucleotide exchange), Epac2^Δ280
T1 construct: made in house
T1 sequence (Q9EQZ6 281-993 isoform Q9EQZ6-3): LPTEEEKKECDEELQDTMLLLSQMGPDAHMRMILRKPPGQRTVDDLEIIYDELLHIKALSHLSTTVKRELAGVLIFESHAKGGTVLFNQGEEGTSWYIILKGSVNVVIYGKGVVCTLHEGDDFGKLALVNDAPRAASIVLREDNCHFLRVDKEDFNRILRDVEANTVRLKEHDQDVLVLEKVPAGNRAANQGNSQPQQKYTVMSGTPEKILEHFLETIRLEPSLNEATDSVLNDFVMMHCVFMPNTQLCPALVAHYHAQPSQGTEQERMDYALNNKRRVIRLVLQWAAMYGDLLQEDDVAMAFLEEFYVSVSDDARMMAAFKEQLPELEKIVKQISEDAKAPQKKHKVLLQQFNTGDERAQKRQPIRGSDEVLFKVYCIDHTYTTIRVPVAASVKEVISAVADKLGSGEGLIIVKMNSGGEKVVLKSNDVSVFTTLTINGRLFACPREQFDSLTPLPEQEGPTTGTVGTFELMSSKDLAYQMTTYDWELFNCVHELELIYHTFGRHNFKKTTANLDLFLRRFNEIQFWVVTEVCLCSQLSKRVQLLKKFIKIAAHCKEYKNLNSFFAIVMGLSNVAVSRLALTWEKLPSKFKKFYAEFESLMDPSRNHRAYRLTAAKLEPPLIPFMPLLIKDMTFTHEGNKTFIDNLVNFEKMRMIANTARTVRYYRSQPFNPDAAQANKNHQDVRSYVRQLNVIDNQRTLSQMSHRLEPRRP
Protocol: (§1) Murine Epac2 was used as all previous structural studies were performed with it.
(§2) The activity of Epac was determined by a fluorescence assay. […] The fluorescence intensity of Rap1B•mGDP is approximately twice that of free mGDP, and thus, nucleotide exchange can be observed as a decay in fluorescence upon the addition of excess unlabeled GDP.

Epac2^Δ280,K450E = target: T2, Epac2^Δ280,K450E (Mus musculus, UniProt Q9EQZ6, K468E); assay: Epac activation assay, Epac2 K450E mutant
T2 construct: made in house
T2 sequence (Q9EQZ6 281-993 isoform Q9EQZ6-3 K450E): T1 sequence (Q9EQZ6 281-993 isoform Q9EQZ6-3) with K170E
Protocol: as §1, §2

PKA-Iβ = target: T3, PKA-Iβ (Homo sapiens, UniProt P31321); assay: PKA activity assay, PKA-Iβ; conditions: for A (PKA activity): PKAIβ
T3 construct: made in house
T3 sequence (P31321 whole entry): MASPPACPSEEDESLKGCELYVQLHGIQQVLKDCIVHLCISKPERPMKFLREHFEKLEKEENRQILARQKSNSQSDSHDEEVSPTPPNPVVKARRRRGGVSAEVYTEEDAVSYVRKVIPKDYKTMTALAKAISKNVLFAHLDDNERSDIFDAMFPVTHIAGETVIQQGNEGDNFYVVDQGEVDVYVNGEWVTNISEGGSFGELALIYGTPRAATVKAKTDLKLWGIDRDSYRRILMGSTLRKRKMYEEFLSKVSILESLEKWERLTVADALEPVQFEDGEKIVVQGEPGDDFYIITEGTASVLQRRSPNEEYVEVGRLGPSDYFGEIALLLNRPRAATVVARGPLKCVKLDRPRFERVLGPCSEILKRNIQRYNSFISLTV
Protocol: The recombinant human PKA catalytic subunit (Cα1) and the four human PKA regulatory subunits (RIα, RIβ, RIIα, RIIβ) were expressed, purified, and characterized as described. […] PKA holoenzymes were formed by mixing the R- and C-subunit at a molar ratio of 1.2:1 and extensive dialysis against 20 mM MOPS (pH 7.0), 150 mM NaCl, 2.5 mM β-mercaptoethanol, supplemented with 1 mM ATP and 10 mM MgCl2 for PKA-I at 4°C overnight. PKA holoenzymes were used at about 20 nM for the activation assay. The apparent activation constants (Kact) were determined by fitting the concentration-dependent activity to a sigmoid dose-response model.

Nc1ncnc2c1ncn2[C@@H]1O[C@@H]2COP(=O)(O)O[C@H]2[C@H]1O [cAMP, reference compound]
kobs (Epac2^Δ280; 0.4 μM compound): 9.9e-05 s⁻¹ | kobs (Epac2^Δ280; 0.5 μM compound): 0.000111 s⁻¹ | kobs (Epac2^Δ280; 0.6 μM compound): 0.000113 s⁻¹ | kobs (Epac2^Δ280; 0.7 μM compound): 0.000125 s⁻¹ | kobs (Epac2^Δ280; 0.8 μM compound): 0.000132 s⁻¹ | kobs (Epac2^Δ280; 1 μM compound): 0.000141 s⁻¹ | kobs (Epac2^Δ280; 2 μM compound): 0.000207 s⁻¹ | kobs (Epac2^Δ280; 3 μM compound): 0.000246 s⁻¹ | kobs (Epac2^Δ280; 4 μM compound): 0.000263 s⁻¹ | kobs (Epac2^Δ280; 5 μM compound): 0.000273 s⁻¹ | kobs (Epac2^Δ280; 6 μM compound): 0.000293 s⁻¹ | kobs (Epac2^Δ280; 7 μM compound): 0.000298 s⁻¹ | kobs (Epac2^Δ280; 8 μM compound): 0.000303 s⁻¹ | kobs (Epac2^Δ280; 10 μM compound): 0.00031 s⁻¹ | kobs (Epac2^Δ280; 20 μM compound): 0.000328 s⁻¹ | kobs (Epac2^Δ280; 30 μM compound): 0.000331 s⁻¹ | share of cAMP bound protein still in an inactive conformation (Epac2^Δ280; Epac2, assuming the most efficient activators shift the equilibrium fully): ~85% | kobs (Epac2^Δ280,K450E; 0.01 μM compound): 3.01e-05 s⁻¹ | kobs (Epac2^Δ280,K450E; 0.05 μM compound): 4.19e-05 s⁻¹ | kobs (Epac2^Δ280,K450E; 0.08 μM compound): 5.14e-05 s⁻¹ | kobs (Epac2^Δ280,K450E; 0.1 μM compound): 5.5e-05 s⁻¹ | kobs (Epac2^Δ280,K450E; 0.2 μM compound): 8.25e-05 s⁻¹ | kobs (Epac2^Δ280,K450E; 0.3 μM compound): 9.73e-05 s⁻¹ | kobs (Epac2^Δ280,K450E; 0.4 μM compound): 0.000114 s⁻¹ | kobs (Epac2^Δ280,K450E; 0.5 μM compound): 0.000124 s⁻¹ | kobs (Epac2^Δ280,K450E; 0.6 μM compound): 0.000146 s⁻¹ | kobs (Epac2^Δ280,K450E; 0.7 μM compound): 0.000155 s⁻¹ | kobs (Epac2^Δ280,K450E; 0.8 μM compound): 0.000161 s⁻¹ | kobs (Epac2^Δ280,K450E; 1 μM compound): 0.00017 s⁻¹ | kobs (Epac2^Δ280,K450E; 2 μM compound): 0.000246 s⁻¹ | kobs (Epac2^Δ280,K450E; 3 μM compound): 0.000274 s⁻¹ | kobs (Epac2^Δ280,K450E; 4 μM compound): 0.000285 s⁻¹ | kobs (Epac2^Δ280,K450E; 5 μM compound): 0.000283 s⁻¹ | kobs (Epac2^Δ280,K450E; 6 μM compound): 0.000286 s⁻¹ | kobs (Epac2^Δ280,K450E; 7 μM compound): 0.000293 s⁻¹ | kobs (Epac2^Δ280,K450E; 8 μM compound): 0.000295 s⁻¹ | kobs (Epac2^Δ280,K450E; 10 μM compound): 0.000299 s⁻¹ | kobs (Epac2^Δ280,K450E; 20 μM compound): 0.000336 s⁻¹ | kobs (Epac2^Δ280,K450E; 30 μM compound): 0.000329 s⁻¹ | kobs (Epac2^Δ280,K450E; 40 μM compound): 0.000336 s⁻¹ | kobs (Epac2^Δ280,K450E; 50 μM compound): 0.000327 s⁻¹ | kobs (Epac2^Δ280,K450E; 60 μM compound): 0.000303 s⁻¹ | kobs (Epac2^Δ280,K450E; 70 μM compound): 0.000306 s⁻¹ | kobs (Epac2^Δ280,K450E; 80 μM compound): 0.000304 s⁻¹ | kobs (Epac2^Δ280,K450E; 100 μM compound): 0.000294 s⁻¹ | A (PKA activity) (PKA-Iβ; concentration 1 μM): 2.35E+01 U/mg | A (PKA activity) (PKA-Iβ; concentration 1.00E+01 μM): 2.37E+01 U/mg | A (PKA activity) (PKA-Iβ; concentration 1.00E+02 μM): 2.44E+01 U/mg | A (PKA activity) (PKA-Iβ; concentration 1.00E-01 μM): 2.23E+01 U/mg | A (PKA activity) (PKA-Iβ; concentration 1.00E-02 μM): 7.2375 U/mg | A (PKA activity) (PKA-Iβ; concentration 1.00E-03 μM): 2.9 U/mg | A (PKA activity) (PKA-Iβ; concentration 1.00E-05 μM): 4.525 U/mg | A (PKA activity) (PKA-Iβ; concentration 2.50E-02 μM): 1.08E+01 U/mg | A (PKA activity) (PKA-Iβ; concentration 5.00E-02 μM): 1.54E+01 U/mg

Nc1ncnc2c1nc(SCc1ccccc1)n2[C@@H]1O[C@@H]2CO[P@](O)(=S)O[C@H]2[C@H]1O [S-220, Sp-8-BnT-cAMPS]
kobs (Epac2^Δ280; 0.04 μM compound): 0.000468 s⁻¹ | kobs (Epac2^Δ280; 0.05 μM compound): 0.000508 s⁻¹ | kobs (Epac2^Δ280; 0.06 μM compound): 0.000631 s⁻¹ | kobs (Epac2^Δ280; 0.07 μM compound): 0.000864 s⁻¹ | kobs (Epac2^Δ280; 0.08 μM compound): 0.000721 s⁻¹ | kobs (Epac2^Δ280; 0.1 μM compound): 0.000827 s⁻¹ | kobs (Epac2^Δ280; 0.2 μM compound): 0.00131 s⁻¹ | kobs (Epac2^Δ280; 0.3 μM compound): 0.00149 s⁻¹ | kobs (Epac2^Δ280; 0.4 μM compound): 0.00167 s⁻¹ | kobs (Epac2^Δ280; 0.5 μM compound): 0.00155 s⁻¹ | kobs (Epac2^Δ280; 0.6 μM compound): 0.00184 s⁻¹ | kobs (Epac2^Δ280; 0.7 μM compound): 0.00188 s⁻¹ | AC50 (Epac2^Δ280; Epac2^Δ280): 0.1 µM | Rel. kmax (Epac2^Δ280; Epac2^Δ280, maximal activity relative to cAMP): 7.7 | kobs (Epac2^Δ280,K450E; 0.001 μM compound): 3.4e-05 s⁻¹ | kobs (Epac2^Δ280,K450E; 0.003 μM compound): 4.1e-05 s⁻¹ | kobs (Epac2^Δ280,K450E; 0.005 μM compound): 4.7e-05 s⁻¹ | kobs (Epac2^Δ280,K450E; 0.008 μM compound): 5.6e-05 s⁻¹ | kobs (Epac2^Δ280,K450E; 0.01 μM compound): 7.9e-05 s⁻¹ | kobs (Epac2^Δ280,K450E; 0.03 μM compound): 0.000149 s⁻¹ | kobs (Epac2^Δ280,K450E; 0.04 μM compound): 0.000174 s⁻¹ | kobs (Epac2^Δ280,K450E; 0.05 μM compound): 0.000201 s⁻¹ | kobs (Epac2^Δ280,K450E; 0.06 μM compound): 0.000239 s⁻¹ | kobs (Epac2^Δ280,K450E; 0.07 μM compound): 0.000269 s⁻¹ | kobs (Epac2^Δ280,K450E; 0.08 μM compound): 0.000291 s⁻¹ | kobs (Epac2^Δ280,K450E; 0.1 μM compound): 0.000329 s⁻¹ | kobs (Epac2^Δ280,K450E; 0.2 μM compound): 0.000621 s⁻¹ | kobs (Epac2^Δ280,K450E; 0.3 μM compound): 0.000717 s⁻¹ | kobs (Epac2^Δ280,K450E; 0.4 μM compound): 0.000786 s⁻¹ | kobs (Epac2^Δ280,K450E; 0.5 μM compound): 0.000805 s⁻¹ | kobs (Epac2^Δ280,K450E; 0.6 μM compound): 0.000891 s⁻¹ | kobs (Epac2^Δ280,K450E; 0.7 μM compound): 0.000938 s⁻¹ | kobs (Epac2^Δ280,K450E; 0.8 μM compound): 0.000942 s⁻¹ | kobs (Epac2^Δ280,K450E; 1 μM compound): 0.000907 s⁻¹ | kobs (Epac2^Δ280,K450E; 2 μM compound): 0.00111 s⁻¹ | kobs (Epac2^Δ280,K450E; 3 μM compound): 0.00113 s⁻¹ | kobs (Epac2^Δ280,K450E; 4 μM compound): 0.00112 s⁻¹ | kobs (Epac2^Δ280,K450E; 5 μM compound): 0.00108 s⁻¹ | kobs (Epac2^Δ280,K450E; 6 μM compound): 0.00112 s⁻¹ | kobs (Epac2^Δ280,K450E; 7 μM compound): 0.00112 s⁻¹ | kobs (Epac2^Δ280,K450E; 8 μM compound): 0.00112 s⁻¹ | kobs (Epac2^Δ280,K450E; 10 μM compound): 0.00104 s⁻¹ | Kact compared to cAMP (times higher) (PKA-Iβ; PKA-Iβ): three to eight times higher | EC50 (PKA-Iβ; PKA-Iβ, read-out: Kact): 0.29 µM | A (PKA activity) (PKA-Iβ; concentration 1 μM): 2.04E+01 U/mg | A (PKA activity) (PKA-Iβ; concentration 1.00E+01 μM): 2.34E+01 U/mg | A (PKA activity) (PKA-Iβ; concentration 1.00E-01 μM): 7.7375 U/mg | A (PKA activity) (PKA-Iβ; concentration 1.00E-02 μM): 4.3125 U/mg | A (PKA activity) (PKA-Iβ; concentration 1.00E-03 μM): 4.35 U/mg | A (PKA activity) (PKA-Iβ; concentration 1.00E-05 μM): 4.525 U/mg | A (PKA activity) (PKA-Iβ; concentration 1.70E-01 μM): 1.11E+01 U/mg | A (PKA activity) (PKA-Iβ; concentration 2.50E+02 μM): 2.32E+01 U/mg | A (PKA activity) (PKA-Iβ; concentration 2.50E-01 μM): 1.38E+01 U/mg | A (PKA activity) (PKA-Iβ; concentration 5.00E-01 μM): 1.59E+01 U/mg
